Measurements as given in patent publication US20240043427A1 (Gilead Sciences, Inc., priority 2020, published 2024).
Where “and” joins values, the source holds several entries; their conditions need not be identical. Equal values may be shown once.

Columns and labels:
CD73 [1] = target: T1, CD73 (Homo sapiens (Human), UniProt P21589); assay: MDA-MB-231 Cell Based CD73 Activity Assay; conditions: MDA-MB-231-GFP cells, RPMI medium with 10% human plasma, 200 uM AMP
Protocol: MDA-MB-231 Cell Based CD73 Activity Assay
MDA-MB-231-GFP cells were seeded in 384-well plates (Greiner 781946) at a density of 10000 cells per well in 50 μL of RPMI medium with 10% HP (human plasma). Cells were plated into assay plate with compounds pre-spotted, for an overnight compound treatment. 50 μL of 400 μM AMP (final concentration 200 μM) using a Bio-tek dispenser. Plates were incubated for 100 mins. […] The samples were run using Rapid fire.

CD73 [2] = target: T1, CD73; assay: CD73 Biochemical IC50 Assay; conditions: CD73 0.3 nM, AMP 15 uM, 25 mM Tris pH 7.4, 5 mM MgCl2
Protocol: CD73 Biochemical IC50 Assay
Compound serial dilutions were pre-spotted into Thermo Nunc assay plate. 50 μL CD73 enzyme buffer (CD73 purchased from R&D system=0.6 nM, 25 mM Tris, pH 7.4, 5 mM MgCl2) was added into the assay plate and incubated for 15 mins. […] The samples were run using Rapid fire.

T1 sequence (P21589 27-574): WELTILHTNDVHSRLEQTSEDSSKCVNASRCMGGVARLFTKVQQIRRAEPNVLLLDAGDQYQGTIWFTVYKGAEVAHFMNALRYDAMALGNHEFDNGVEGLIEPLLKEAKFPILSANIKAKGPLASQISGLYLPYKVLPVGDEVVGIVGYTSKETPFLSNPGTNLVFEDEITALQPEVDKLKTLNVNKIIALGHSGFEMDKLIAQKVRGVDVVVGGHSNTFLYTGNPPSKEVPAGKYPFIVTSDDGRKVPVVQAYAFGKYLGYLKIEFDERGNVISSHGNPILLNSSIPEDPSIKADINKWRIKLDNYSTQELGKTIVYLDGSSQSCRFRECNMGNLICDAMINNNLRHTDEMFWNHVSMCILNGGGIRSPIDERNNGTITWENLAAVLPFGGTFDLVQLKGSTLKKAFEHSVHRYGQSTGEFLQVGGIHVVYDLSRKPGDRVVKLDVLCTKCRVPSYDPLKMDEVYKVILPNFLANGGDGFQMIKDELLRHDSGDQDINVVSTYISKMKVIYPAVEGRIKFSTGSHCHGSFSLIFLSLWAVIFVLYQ

EC50 (CD73 [1]) | IC50 (CD73 [2]) | Compound
6.59 nM | 32.6 nM | O=c1[nH]cc(-c2cc([C@H]3C[C@@H]3c3ccc(C4CC4)cc3)c3nccn3n2)c(=O)[nH]1 (racemic) [Example 45, 5-(8-((1S,2S)-2-(4-cyclopropylphenyl)cyclopropyl)imidazo[1,2-b]pyridazin-6-yl)pyrimidine-2,4(1H,3H)-dione and 5-(8-((1R,2R)-2-(4-cyclopropylphenyl)cyclopropyl)imidazo[1,2-b]pyridazin-6-yl)pyrimidine-2,4(1H,3H)-dione]
13.7 nM | 47.2 nM | O=c1[nH]cc(-c2cc([C@H]3C[C@@H]3c3cccc(OC(F)(F)F)c3)c3nccn3n2)c(=O)[nH]1 (racemic) [Example 47, 5-(8-((1S,2S)-2-(3-(trifluoromethoxy)phenyl)cyclopropyl)imidazo[1,2-b]pyridazin-6-yl) pyrimidine-2,4(1H,3H)-dione and 5-(8-((1R,2R)-2-(3-(trifluoromethoxy)phenyl)cyclopropyl)imidazo[1,2-b]pyridazin-6-yl) pyrimidine-2,4(1H,3H)-dione]
6.43 nM | 12.6 nM | O=c1[nH]cc(-c2cc([C@H]3C[C@@H]3c3cc(F)cc(F)c3)c3nccn3n2)c(=O)[nH]1 (racemic) [Example 60, 5-(8-((1S,2S)-2-(3,5-difluorophenyl)cyclopropyl)imidazo[1,2-b]pyridazin-6-yl)pyrimidine-2,4(1H,3H)-dione and 5-(8-((1R,2R)-2-(3,5-difluorophenyl)cyclopropyl)imidazo[1,2-b]pyridazin-6-yl)pyrimidine-2,4(1H,3H)-dione]
6.71 nM | 13.2 nM | O=c1[nH]cc(-c2cc([C@H]3C[C@@H]3c3cc(F)ccc3F)c3nccn3n2)c(=O)[nH]1 (racemic) [Example 65, 5-(8-((1S,2S)-2-(2,5-difluorophenyl)cyclopropyl)imidazo[1,2-b]pyridazin-6-yl)pyrimidine-2,4(1H,3H)-dione and 5-(8-((1R,2R)-2-(2,5-difluorophenyl)cyclopropyl)imidazo[1,2-b]pyridazin-6-yl)pyrimidine-2,4(1H,3H)-dione]
540 nM | 170 nM | O=c1[nH]cc(-c2cc([C@H]3C[C@@H]3c3cccc4ccccc34)c3nccn3n2)c(=O)[nH]1 (racemic) [Example 74, 5-[8-[(1S,2S)-2-(1-naphthyl)cyclopropyl]imidazo[1,2-b]pyridazin-6-yl]-1H-pyrimidine-2,4-dione and 5-[8-[(1R,2R)-2-(1-naphthyl)cyclopropyl]imidazo[1,2-b]pyridazin-6-yl]-1H-pyrimidine-2,4-dione]
2.48 nM | 26.5 nM | O=c1[nH]cc(-c2cc([C@H]3C[C@@H]3c3ccc(F)cc3)c3ncc(F)n3n2)c(=O)[nH]1 (racemic) [Example 76, 5-[3-fluoro-8-[(1S,2S)-2-(4-fluorophenyl)cyclopropyl]imidazo[1,2-b]pyridazin-6-yl]-1H-pyrimidine-2,4-dione and 5-[3-fluoro-8-[(1R,2R)-2-(4-fluorophenyl)cyclopropyl]imidazo[1,2-b]pyridazin-6-yl]-1H-pyrimidine-2,4-dione]
39.1 nM | 49.5 nM | O=c1[nH]cc(-c2cc([C@H]3C[C@@H]3c3ccc(F)c(C(F)(F)F)c3)c3nccn3n2)c(=O)[nH]1 (racemic) [Example 95, 5-(8-((1S,2S)-2-(4-fluoro-3-(trifluoromethyl)phenyl)cyclopropyl)imidazo[1,2-b]pyridazin-6-yl)pyrimidine-2,4(1H,3H)-dione and 5-(8-((1R,2R)-2-(4-fluoro-3-(trifluoromethyl)phenyl)cyclopropyl)imidazo[1,2-b]pyridazin-6-yl)pyrimidine-2,4(1H,3H)-dione]
6.05 nM | 19.3 nM | O=c1[nH]cc(-c2cc([C@H]3C[C@@H]3c3ccc(F)c(Cl)c3)c3nccn3n2)c(=O)[nH]1 (racemic) [Example 99, 5-(8-((1S,2S)-2-(3-chloro-4-fluorophenyl)cyclopropyl)imidazo[1,2-b]pyridazin-6-yl)pyrimidine-2,4(1H,3H)-dione and 5-(8-((1R,2R)-2-(3-chloro-4-fluorophenyl)cyclopropyl)imidazo[1,2-b]pyridazin-6-yl)pyrimidine-2,4(1H,3H)-dione]
38.5 nM | 285 nM | O=c1[nH]cc(-c2cc([C@H]3C[C@@H]3Cc3ccccc3)c3nccn3n2)c(=O)[nH]1 (racemic) [Example 105, 5-(8-((1S,2R)-2-benzylcyclopropyl)imidazo[1,2-b]pyridazin-6-yl)pyrimidine-2,4(1H,3H)-dione and 5-(8-((1R,2S)-2-benzylcyclopropyl)imidazo[1,2-b]pyridazin-6-yl)pyrimidine-2,4(1H,3H)-dione]
71.5 nM | 205 nM | N#Cc1ccc(C[C@H]2C[C@@H]2c2cc(-c3c[nH]c(=O)[nH]c3=O)nn3ccnc23)cc1 (racemic) [Example 111, 4-(41R,2S)-2-(6-(2,4-dioxo-1,2,3,4-tetrahydropyrimidin-5-yl)imidazo[1,2-b]pyridazin-8-yl)cyclopropyl)methyl)benzonitrile and 4-(((1S,2R)-2-(6-(2,4-dioxo-1,2,3,4-tetrahydropyrimidin-5-yl)imidazo[1,2-b]pyridazin-8-yl)cyclopropyl)methyl)benzonitrile]
67.5 nM | 69.5 nM | O=c1[nH]cc(-c2cc(N3CCC(c4ccc(F)cc4)C3)c3nccn3n2)c(=O)[nH]1 (stereo in doubt) [Example 68, 5-[8-[(3S)-3-(4-fluorophenyl)pyrrolidin-1-yl]imidazo[1,2-b]pyridazin-6-yl]-1H-pyrimidine-2,4-dione]
413 nM | 507 nM | Cc1cn2nc(-c3c[nH]c(=O)[nH]c3=O)cc(C3CC3)c2n1 [Example 1, 5-(8-cyclopropyl-2-methyl-imidazo[1,2-b]pyridazin-6-yl)-1H-pyrimidine-2,4-dione]
53.3 nM | 32.4 nM | O=c1[nH]cc(-c2cc(C3CC3)c3nc(-c4ccccc4)cn3n2)c(=O)[nH]1 [Example 2, 5-(8-cyclopropyl-2-phenyl-imidazo[1,2-b]pyridazin-6-yl)-1H-pyrimidine-2,4-dione]
195 nM | 235 nM | CCOC(=O)c1cn2nc(-c3c[nH]c(=O)[nH]c3=O)cc(C3CC3)c2n1 [Example 3, Ethyl 8-cyclopropyl-6-(2,4-dioxo-1H-pyrimidin-5-yl)imidazo[1,2-b]pyridazine-2-carboxylate]
473 nM | 980 nM | O=c1[nH]cc(-c2cc(N3CCOCC3)c3nccn3n2)c(=O)[nH]1 [Example 10, 5-(8-morpholinoimidazo[1,2-b]pyridazin-6-yl)-1H-pyrimidine-2,4-dione]
74.1 nM | 110 nM | O=c1[nH]cc(-c2cc(-n3ccnc3)c3nccn3n2)c(=O)[nH]1 [Example 11, 5-(8-imidazol-1-ylimidazo[1,2-b]pyridazin-6-yl)-1H-pyrimidine-2,4-dione]
508 nM and 689 nM | 479 nM and 653 nM | O=c1[nH]cc(-c2cc(NCc3ccccc3)c3nccn3n2)c(=O)[nH]1 [Example 12, 5-(8-(benzylamino)imidazo[1,2-b]pyridazin-6-yl)pyrimidine-2,4(1H,3H)-dione]
692 nM and 896 nM | 368 nM and 607 nM | CN(Cc1ccccc1)c1cc(-c2c[nH]c(=O)[nH]c2=O)nn2ccnc12 [Example 13, 5-(8-(benzyl(methyl)amino)imidazo[1,2-b]pyridazin-6-yl)pyrimidine-2,4(1H,3H)-dione]
